# Columns and labels:
# [1] = system: malignant trophoblastic cell lines; details: prior art (Trewyn et al. 1979); cited from earlier work
# HL-60 cells = details: prior art (Meisel et al. 1998; Mlejnek et al. 2005); cited from earlier work
# prostate cancer cells = test: Effect on other cancer cells: prostate; type: cell-based
# [2] = system: L1210 leukemia cultured cells; details: prior art (Kato et al 1986; Takamura et al 1989); cited from earlier work
# [3] = system: MCF-7 breast cancer cell line; test: Tetrazolium dye proliferation (WST-1) assay in MCF-7 cells; type: cell-based; details: 5 days incubation
# Procedure: (§1) Determination of the ability of compound of formula (I) and combinations between compound of formula (I) and certain therapeutic compounds described herein to inhibit the proliferation of target cells was assayed in vitro against breast tumour cells.
# (§2) MCF-7 cells were purchased from ATCC. PNT1A cells were purchased from ECACC. The cells were grown in a subconfluent condition to maintain a logarithmic growth phase. The cells were dislodged for passage using trypsin-EDTA.
# (§3) The proliferation of the cell lines was evaluated by using the commercial WST-1 proliferation measurement reagent. Cells from exponentially growing cultures were plated on the 96 well plates at the appropriate seeding density in the optimal medium to give logarithmic growth over the course of the assay. […] Following incubation the absorbance at a wavelength of 450 nm was measured from each well using a multilabel counter. The absorbance at wavelength 450 nm correlates linearly to number of viable cells in the well.
# (§4) The means and standard deviations for parallel samples were calculated and plotted as a graph.
# (§5) The antiproliferative activity of compound of formula (I) was evaluated in vitro using tetrazolium dye proliferation assay in different cell lines: MCF-7 (breast cancer cell line, derived from pleura fluid) and PNT1A (normal prostate cell line, SV40 immortalized).
# pancreatic cancer cells = test: Effect on other cancer cells: pancreatic; type: cell-based
# [4] = system: PNT1A immortalized normal prostate cell line; test: Tetrazolium dye proliferation (WST-1) assay in PNT1A cells; type: cell-based; details: Homo sapiens, 120 h, compared with 0.1 % DMSO vehicle control group, 5 days incubation, read-out: proliferation inhibitory effect
# Procedure: as §1, §2, §3, §4, §5
# Ehrlich ascites tumour = details: prior art (Kato et al 1986; Takamura et al 1989); cited from earlier work
compound,measurement,setting,value
"CN(C)c1ncnc2c1ncn2[C@@H]1O[C@H](CO)[C@@H](O)[C@H]1O [Compound I, N6,N6-Dimethyladenosine]",cytotoxicity to malignant trophoblastic cell lines,[1],cytotoxic
same,apoptosis induction on HL-60 cells,HL-60 cells,apoptotic inductor
same,effect on prostate cancer cells,prostate cancer cells,no effect was detected
same,antitumour activity in L1210 leukemia cultured cells,[2],inactive
same,inhibition at 1 µM,"[3]; Homo sapiens, MCF7, 120 h, compared with 0.1 % DMSO vehicle control group, 1 microM, read-out: proliferation inhibitory effect",91.6 ± 2.1%
same,proliferation inhibitory effect compared with Gemcitabine,[3]; relative to Gemcitabine (= 0),62.6±9.4%
same,effect on pancreatic cancer cells,pancreatic cancer cells,no effect was detected
same,inhibition at 1 µM,[4],17.4 ± 5.3%
same,antitumour activity against Ehrlich ascites tumour,Ehrlich ascites tumour,inactive
